Experiments:
[1] = tested on: EBC-1 (Squamous Cell Lung Carcinoma); assay: combination Emax (second highest fraction inhibited in the dose matrix, 72 h); higher = more inhibition; extreme values may be limits of the assay
In short: (§1)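 Cell lines in DMEM/F12 or RPMI with 10% FBS were plated in 1536-well plates, held 24 hours at 37°C, 5% CO2, then given two-drug dose matrices for 72 hours (DMSO typically 0.2%). Viability was read by CellTiter-Glo 2.0 luminescence and scaled as inhibition from 0 (vehicle wells) to 1 (blank wells). Combination Emax is the second-highest inhibition in the matrix; Bliss excess is observed combination effect minus expected EA + EB − EA·EB, EA and EB being single-agent effects.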

[2] = tested on: KLE (Endometrial Carcinoma); assay: as above
In short: as §1

[3] = tested on: HuP-T3 (Pancreatic Carcinoma); assay: as above
In short: as §1

[4] = tested on: H-EMC-SS (Chondrosarcoma); assay: as above
In short: as §1

[5] = tested on: OCUM-1 (Gastric Carcinoma); assay: as above
In short: as §1

EW-13 (Ewing's Sarcoma) [6] = assay: as above
In short: as §1

[7] = tested on: PF-382 (T-Lymphoblastic Leukemia); assay: as above
In short: as §1

[8] = tested on: VMRC-LCD (Lung Adenocarcinoma); assay: as above
In short: as §1

[9] = tested on: KYSE-50 (Esophageal Squamous Cell Carcinoma); assay: as above
In short: as §1

[10] = tested on: PFSK-1 (Other Solid Carcinomas); assay: as above
In short: as §1

[11] = tested on: KP-2 (Pancreatic Carcinoma); assay: as above
In short: as §1

IMR-5 (Neuroblastoma) = assay: as above
In short: as §1

GI-1 (Glioblastoma) [12] = assay: as above
In short: as §1

EW-13 (Ewing's Sarcoma) [13] = assay: Bliss excess, mean over the matrix (fraction); higher = more synergy
In short: as §1

NB7 (Neuroblastoma) = assay: as above
In short: as §1

[14] = tested on: PFSK-1 (Other Solid Carcinomas); assay: as above
In short: as §1

[15] = tested on: LC4-1 (B-Lymphoblastic Leukemia); assay: as above
In short: as §1

[16] = tested on: NCI-N87 (Gastric Carcinoma); assay: as above
In short: as §1

[17] = tested on: ASH-3 (Thyroid Gland Carcinoma); assay: as above
In short: as §1

GI-1 (Glioblastoma) [18] = assay: as above
In short: as §1
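Wherever Bliss excess, mean over the matrix is given: after 72 h of two-drug dosing.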

SMILES | combination Emax [1] | combination Emax [2] | combination Emax [3] | combination Emax [4] | combination Emax [5] | combination Emax (EW-13 (Ewing's Sarcoma) [6]) | combination Emax [7] | combination Emax [8] | combination Emax [9] | combination Emax [10] | combination Emax [11] | combination Emax (IMR-5 (Neuroblastoma)) | combination Emax (GI-1 (Glioblastoma) [12]) | Bliss excess (EW-13 (Ewing's Sarcoma) [13]) | Bliss excess (NB7 (Neuroblastoma)) | Bliss excess [14] | Bliss excess [15] | Bliss excess [16] | Bliss excess [17] | Bliss excess (GI-1 (Glioblastoma) [18])
Cc1c2c(nn1C)CSCc1cc(n(C)n1)CSc1cc(c3ccccc3c1)OCCCc1c(C(=O)O)n(C)c3c-2c(Cl)ccc13 [AZD5991] + CN(C)CCCOc1ccc(-c2ccc3ncc4c(c3c2)n(C2CCOCC2)c(=O)n4C)cn1 [AZD0156] (first compound max 1 µM, 7x7, partner max 1 µM) | 0.251 | 0.262 | 0.213 | 0.431 | 0.113 | 0.401 | 0.337 | 0.2 | 0.292 | 0.993 | 0.18 | 0.985 | 0.774 | -0.0024 | -0.0178 | 0.0228 | -0.0177 | 0.0027 | -0.0253 | 0.0067
CC(=O)c1c(C)c2cnc(Nc3ccc(N4CCNCC4)cn3)nc2n(C2CCCC2)c1=O [Palbociclib] + Cn1cnc2c(F)c(Nc3ccc(Br)cc3Cl)c(C(=O)NOCCO)cc21 [Selumetinib] (first compound max 10 µM, 7x7, partner max 10 µM) | 0.944 | 0.31 | 0.385 | 0.414 | 0.944 | 0.113 | 0.761 | 0.123 | 0.357 | 0.138 | 0.376 | 0.612 | 0.0397 | -0.0287 | 0.0136 | -0.0505 | 0.0312 | 0.0117 | -0.0805 | -0.0734
Cc1c2c(nn1C)CSCc1cc(n(C)n1)CSc1cc(c3ccccc3c1)OCCCc1c(C(=O)O)n(C)c3c-2c(Cl)ccc13 [AZD5991] + C[C@@H]1COCCN1C2=NC(=NC(=C2)C3(CC3)[S@](=N)(=O)C)C4=C5C=CNC5=NC=C4 [AZD6738] (first compound max 1 µM, 7x7, partner max 10 µM) | 0.491 | 0.483 | 0.666 | 0.511 | 0.71 | 0.805 | 0.929 | 0.559 | 0.643 | 1 | 0.259 | 1 | 0.995 | -0.0056 | 0.028 | 0.0139 | 0.0101 | -0.0285 | 0.0554 | -0.0238
COc1cc2ncnc(Nc3ccc(F)c(Cl)c3)c2cc1OCCCN1CCOCC1 [Gefitinib] + CC(C)n1c(=O)n(C)c2cnc3cc(F)c(-c4ccc(OCCCN5CCCCC5)nc4)cc3c21 [AZD1390] (first compound max 10 µM, 7x7, partner max 0.3 µM) | 0.0862 | 0.442 | 0.14 | 0.201 | 0.148 | 0.117 | 0.323 | 0.0987 | 0.334 | 0.265 | 0.0653 | 0.123 | 0.18 | -0.0568 | -0.0402 | -0.0688 | -0.0408 | -0.064 | -0.0537 | -0.013
COc1nnc2ccc(N3CCC(c4ccc(OCCN5CCN(C)C(=O)[C@H]5C)cc4)CC3)nn12 [AZD5153] + C[C@@H]1COCCN1C2=NC(=NC(=C2)C3(CC3)[S@](=N)(=O)C)C4=C5C=CNC5=NC=C4 [AZD6738] (first compound max 1 µM, 7x7, partner max 10 µM) | 0.798 | 0.737 | 0.705 | 0.321 | 0.641 | 0.831 | 1 | 0.921 | 0.804 | 0.648 | 0.432 | 1 | 0.97 | 0.0682 | -0.0111 | -0.0115 | -0.0721 | -0.0135 | -0.025 | 0.0053
CC1(C)CCC(CN2CCN(c3ccc(C(=O)NS(=O)(=O)c4ccc(NCC5CCOCC5)c([N+](=O)[O-])c4)c(Oc4cnc5[nH]ccc5c4)c3)CC2)=C(c2ccc(Cl)cc2)C1 [Venetoclax] + Cc1cc2ncnn2cc1Nc1ncc2c(n1)n(C1CCOCC1)c(=O)n2C [AZD7648] (first compound max 1 µM, 7x7, partner max 10 µM) | 0.26 | 0.444 | 0.166 | 0.327 | 0.216 | 0.0496 | 0.355 | 0.179 | 0.217 | 0.489 | 0.175 | 0.282 | 0.238 | -0.0417 | -0.018 | 0.0904 | 0.0187 | -0.0609 | -0.0732 | 0.0369
COc1nnc2ccc(N3CCC(c4ccc(OCCN5CCN(C)C(=O)[C@H]5C)cc4)CC3)nn12 [AZD5153] + Cn1cnc2c(F)c(Nc3ccc(Br)cc3Cl)c(C(=O)NOCCO)cc21 [Selumetinib] (first compound max 1 µM, 7x7, partner max 10 µM) | 1 | 0.631 | 0.692 | 0.368 | 0.909 | 0.315 | 0.903 | 0.575 | 0.697 | 0.664 | 0.54 | 0.906 | 0.705 | -0.0577 | -0.0011 | 0.0031 | 0.012 | -0.0399 | -0.0338 | 0.0286
Cc1nc(Nc2ncc(C(=O)Nc3c(C)cccc3Cl)s2)cc(N2CCN(CCO)CC2)n1 [Dasatinib] + CC(=O)Nc1cccc(-n2c(=O)n(C3CC3)c(=O)c3c(Nc4ccc(I)cc4F)n(C)c(=O)c(C)c32)c1 [Trametinib] (first compound max 2 µM, 7x7, partner max 1 µM) | 0.997 | 0.724 | 0.868 | 0.684 | 0.988 | 0 | 0.991 | 0.163 | 0.858 | 0.338 | 0.712 | 0.19 | 0.368 | -0.0443 | 0.0262 | -0.095 | -0.0543 | -0.0339 | 0.0994 | 0.0396
